Test results taken from patent publication US20020026053A1, “Novel 3-(substituted) -2- indolinones compounds and use thereof as inhibitors of protein kinase activity” (priority 1997, published 2002).

What was measured:
PDGF-R = PDGF-R Assay (cellular ELISA, U1242 cells); type: cell-based; set-up: concentration or dose not given beside the values; conditions: protocol P.119
Outline: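 U1242 cells seeded in 0.5% serum, serum-starved, then exposed to compound for 2 hr at 37°C before 5–10 min ligand stimulation and lysis in HNTG. Lysate captured on receptor-antibody-coated plates; phosphotyrosine detected with polyclonal anti-pTyr, goat anti-rabbit IgG and ABTS/H2O2, A410 (ref 630 nm), versus untreated cells.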

EGFR = target: T1, EGFR (Homo sapiens, UniProt P00533); assay: Biochemical EGFR Assay; set-up: concentration or dose not given beside the values; conditions: protocol P.167
T1 construct: endogenous in cells; host or cells: A431 cells (lysate, captured with SUMO1 anti-EGFR antibody)
Outline: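 EGFR from A431 lysate was captured on anti-EGFR-coated wells and preincubated 30 min with compound (diluted 1:10 in TBS) at room temperature. After ATP/MnCl2 phosphorylation for 5 min, the reaction was stopped with EDTA. Phosphotyrosine was detected by ELISA (anti-phosphotyrosine, peroxidase conjugate, ABTS) at 410 nm.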

T1 sequence (P00533 25-1210): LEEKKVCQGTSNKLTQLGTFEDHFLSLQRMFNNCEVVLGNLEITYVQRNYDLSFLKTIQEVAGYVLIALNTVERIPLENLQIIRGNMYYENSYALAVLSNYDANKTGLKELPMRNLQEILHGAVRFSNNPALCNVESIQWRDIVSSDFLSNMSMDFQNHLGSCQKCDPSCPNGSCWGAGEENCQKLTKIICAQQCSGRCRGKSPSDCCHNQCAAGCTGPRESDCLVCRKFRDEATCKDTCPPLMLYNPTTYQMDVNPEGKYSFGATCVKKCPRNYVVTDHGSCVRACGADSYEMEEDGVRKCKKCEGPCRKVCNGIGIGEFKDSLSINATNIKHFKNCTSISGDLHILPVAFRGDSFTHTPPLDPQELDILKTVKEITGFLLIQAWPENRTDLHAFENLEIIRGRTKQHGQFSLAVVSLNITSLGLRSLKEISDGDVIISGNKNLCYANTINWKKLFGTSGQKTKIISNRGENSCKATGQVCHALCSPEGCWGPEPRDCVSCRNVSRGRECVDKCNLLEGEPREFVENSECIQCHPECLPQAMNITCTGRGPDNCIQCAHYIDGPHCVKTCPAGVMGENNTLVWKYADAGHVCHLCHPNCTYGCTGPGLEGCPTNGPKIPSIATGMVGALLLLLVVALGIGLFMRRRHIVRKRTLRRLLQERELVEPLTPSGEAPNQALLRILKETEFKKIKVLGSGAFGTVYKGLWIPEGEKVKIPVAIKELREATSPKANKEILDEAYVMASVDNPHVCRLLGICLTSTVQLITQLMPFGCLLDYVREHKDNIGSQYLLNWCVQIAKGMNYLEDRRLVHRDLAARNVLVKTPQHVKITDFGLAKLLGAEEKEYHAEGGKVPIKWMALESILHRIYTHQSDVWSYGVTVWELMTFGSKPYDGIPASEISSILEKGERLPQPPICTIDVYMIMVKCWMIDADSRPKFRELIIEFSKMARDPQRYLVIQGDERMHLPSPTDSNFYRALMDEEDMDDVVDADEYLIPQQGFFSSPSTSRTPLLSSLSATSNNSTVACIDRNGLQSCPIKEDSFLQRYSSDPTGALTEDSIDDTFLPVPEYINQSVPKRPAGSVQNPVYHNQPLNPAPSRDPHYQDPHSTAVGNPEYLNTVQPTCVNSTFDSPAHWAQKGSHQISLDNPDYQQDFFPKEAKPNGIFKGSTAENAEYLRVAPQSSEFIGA

Structure (SMILES)	PDGF Kinase % Inhibition (P.119) (PDGF-R)	Biochem EGFR % Inhibition (P.167) (EGFR)
Cc1c(Br)cc(Br)c2c1C(=Cc1cccc(F)c1)C(=O)N2 [10736/H07]	−21.9%	52.2%
Cc1c(Br)cc(Br)c2c1C(=Cc1ccccc1F)C(=O)N2 [10736/H08]	−17.9%	−20.2%
CCc1ccc(C=C2C(=O)Nc3c(Br)cc(Br)c(C)c32)cc1 [10736/H09]	−14.8%	35.7%
COc1cccc(C=C2C(=O)Nc3c(Br)cc(Br)c(C)c32)c1 [10736/H10]	−21.0%	45.6%
Cc1c(Br)cc(Br)c2c1C(=Cc1ccccc1Cl)C(=O)N2 [10736/H11]	−12.7%	11.1%
CCOc1ccc(C=C2C(=O)Nc3c(Br)cc(Br)cc32)cc1 [10737/A02]	6.6%	37.3%
Cc1ccc(C=C2C(=O)Nc3c(Br)cc(Br)cc32)c(C)c1 [10737/A03]	38.8%	12.8%
O=C1Nc2c(Br)cc(Br)cc2C1=Cc1cc(F)ccc1F [10737/A04]	23.7%	29.4%
O=C1Nc2c(Br)cc(Br)cc2C1=Cc1cccc(F)c1F [10737/A05]	21.7%	26.4%
COc1ccc(C=C2C(=O)Nc3c(Br)cc(Br)cc32)cc1F [10737/A06]	15.7%	37.3%
Cc1ccc(C)c(C=C2C(=O)Nc3c(Br)cc(Br)cc32)c1 [10737/A07]	7.0%	25.3%
O=C1Nc2c(Br)cc(Br)cc2C1=Cc1ccc2ccccc2c1 [10737/A08]	1.0%	35.8%
O=C1Nc2c(Br)cc(Br)cc2C1=Cc1ccc(Oc2ccccc2)cc1 [10737/A09]	18.9%	36.0%
CC(C)(C)c1ccc(Oc2cccc(C=C3C(=O)Nc4c(Br)cc(Br)cc43)c2)cc1 [10737/A10]	−3.8%	10.9%
O=C1Nc2c(Br)cc(Br)cc2C1=Cc1cccc(Oc2cccc(C(F)(F)F)c2)c1 [10737/A11]	28.1%	10.8%
CCOc1ccc(C=C2C(=O)Nc3ccc(I)cc32)cc1 [10737/B02]	−28.9%	−34.0%
Cc1ccc(C=C2C(=O)Nc3ccc(I)cc32)c(C)c1 [10737/B03]	29.7%	−34.9%
O=C1Nc2ccc(I)cc2C1=Cc1cc(F)ccc1F [10737/B04]	12.5%	7.1%
O=C1Nc2ccc(I)cc2C1=Cc1cccc(F)c1F [10737/B05]	19.7%	17.4%
COc1ccc(C=C2C(=O)Nc3ccc(I)cc32)cc1F [10737/B06]	20.1%	22.5%
Cc1ccc(C)c(C=C2C(=O)Nc3ccc(I)cc32)c1 [10737/B07]	18.9%	18.1%
O=C1Nc2ccc(I)cc2C1=Cc1ccc2ccccc2c1 [10737/B08]	−0.6%	15.4%
O=C1Nc2ccc(I)cc2C1=Cc1ccc(Oc2ccccc2)cc1 [10737/B09]	−14.1%	26.4%
CC(C)(C)c1ccc(Oc2cccc(C=C3C(=O)Nc4ccc(I)cc43)c2)cc1 [10737/B10]	−10.2%	−7.3%
O=C1Nc2ccc(I)cc2C1=Cc1cccc(Oc2cccc(C(F)(F)F)c2)c1 [10737/B11]	−10.2%	−9.9%

Structure (SMILES)	PDGF Kinase % Inhibition (P.119) (PDGF-R)	Biochem EGFR % Inhibition (P.167) (EGFR)
CCOc1ccc(C=C2C(=O)Nc3ccc(Br)c(C)c32)cc1 [10737/C02]	−2.2%	−22.0%
Cc1ccc(C=C2C(=O)Nc3ccc(Br)c(C)c32)c(C)c1 [10737/C03]	7.0%	−0.7%
Cc1c(Br)ccc2c1C(=Cc1cc(F)ccc1F)C(=O)N2 [10737/C04]	25.7%	14.4%
Cc1c(Br)ccc2c1C(=Cc1cccc(F)c1F)C(=O)N2 [10737/C05]	12.5%	13.3%
COc1ccc(C=C2C(=O)Nc3ccc(Br)c(C)c32)cc1F [10737/C06]	7.8%	29.0%
Cc1ccc(C)c(C=C2C(=O)Nc3ccc(Br)c(C)c32)c1 [10737/C07]	8.6%	27.9%
Cc1c(Br)ccc2c1C(=Cc1ccc3ccccc3c1)C(=O)N2 [10737/C08]	14.5%	16.3%
Cc1c(Br)ccc2c1C(=Cc1ccc(Oc3ccccc3)cc1)C(=O)N2 [10737/C09]	−1.8%	13.0%
Cc1c(Br)ccc2c1C(=Cc1cccc(Oc3ccc(C(C)(C)C)cc3)c1)C(=O)N2 [10737/C10]	6.6%	−15.6%
Cc1c(Br)ccc2c1C(=Cc1cccc(Oc3cccc(C(F)(F)F)c3)c1)C(=O)N2 [10737/C11]	32.5%	−5.6%
CCOc1ccc(C=C2C(=O)Nc3ccc(S(=O)(=O)NC)cc32)cc1 [10737/D02]	−4.2%	−14.7%
CNS(=O)(=O)c1ccc2c(c1)C(=Cc1ccc(C)cc1C)C(=O)N2 [10737/D03]	−5.8%	−21.5%
CNS(=O)(=O)c1ccc2c(c1)C(=Cc1cc(F)ccc1F)C(=O)N2 [10737/D04]	9.4%	−27.7%
CNS(=O)(=O)c1ccc2c(c1)C(=Cc1cccc(F)c1F)C(=O)N2 [10737/D05]	2.2%	17.9%
CNS(=O)(=O)c1ccc2c(c1)C(=Cc1ccc(OC)c(F)c1)C(=O)N2 [10737/D06]	−10.2%	33.8%
CNS(=O)(=O)c1ccc2c(c1)C(=Cc1cc(C)ccc1C)C(=O)N2 [10737/D07]	−5.0%	16.1%
CNS(=O)(=O)c1ccc2c(c1)C(=Cc1ccc3ccccc3c1)C(=O)N2 [10737/D08]	3.0%	5.6%
CNS(=O)(=O)c1ccc2c(c1)C(=Cc1ccc(Oc3ccccc3)cc1)C(=O)N2 [10737/D09]	1.0%	13.7%
CNS(=O)(=O)c1ccc2c(c1)C(=Cc1cccc(Oc3ccc(C(C)(C)C)cc3)c1)C(=O)N2 [10737/D10]	7.0%	−15.0%
CNS(=O)(=O)c1ccc2c(c1)C(=Cc1cccc(Oc3cccc(C(F)(F)F)c3)c1)C(=O)N2 [10737/D11]	5.4%	−2.3%
CCOc1ccc(C=C2C(=O)Nc3ccc(S(=O)(=O)Nc4ccc(C(F)(F)F)cc4)cc32)cc1 [10737/E02]	12.9%	6.7%
Cc1ccc(C=C2C(=O)Nc3ccc(S(=O)(=O)Nc4ccc(C(F)(F)F)cc4)cc32)c(C)c1 [10737/E03]	39.2%	−4.5%
O=C1Nc2ccc(S(=O)(=O)Nc3ccc(C(F)(F)F)cc3)cc2C1=Cc1cc(F)ccc1F [10737/E04]	29.7%	15.4%
O=C1Nc2ccc(S(=O)(=O)Nc3ccc(C(F)(F)F)cc3)cc2C1=Cc1cccc(F)c1F [10737/E05]	33.3%	−8.6%
